US11505558B1, “Antiviral heterocyclic compounds” (Enanta Pharmaceuticals, Inc., priority 2019, dated 2022)

Tested on: genotype A, "Long" strain RSV
Experiment: RSV-A assay (CPE, ATPlite readout in Hep-2 cells)
Assay type: cell-based
Settings: human respiratory syncytial virus, HEp-2, Hep-2 cells, genotype A "Long" strain RSV, MOI 0.1; read-out: Human RSV-A (“Long” strain) EC50
Summary of the method: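 Protection from RSV-induced cytopathic effect, measured as ATPlite luminescence after 5 days, gave EC50 values. Assay used genotype A Long strain at MOI 0.1 on Hep-2 cells seeded at 8,000/well in DMEM growth media with 10% FBS; compounds tested as 2-fold dilutions in duplicate.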

EC50 [nM] | Compound
> 200 | Cn1c(=O)n(C)c2cc(C(=O)NC[C@](O)(c3cc4c(c(-c5ccc(F)cc5)n3)OC[C@]4(C)C(N)=O)C(F)(F)F)ccc21 [Example 322]
> 200 | C[C@]1(C(N)=O)COc2c1cc([C@@](O)(CNC(=O)c1ccc3oc(=O)[nH]c3c1)C(F)(F)F)nc2-c1ccc(F)cc1 [Example 323]
> 200 | C[C@]1(C(N)=O)COc2c1cc([C@@](O)(CNC(=O)c1ccc(F)c(C#N)c1)C(F)(F)F)nc2-c1ccc(F)cc1 [Example 324]
> 200 | Cn1c(=O)[nH]c2cc(C(=O)NC[C@](O)(c3cc4c(c(-c5ccc(F)cc5)n3)OC[C@]4(C)C(N)=O)C(F)(F)F)ccc21 [Example 325]
> 200 | Cn1c(=O)[nH]c2ccc(C(=O)NC[C@](O)(c3cc4c(c(-c5ccc(F)cc5)n3)OC[C@]4(C)C(N)=O)C(F)(F)F)cc21 [Example 326]
> 200 | C[C@]1(C(N)=O)COc2c1cc([C@@](O)(CNC(=O)c1ccc3ncc(=O)[nH]c3c1)C(F)(F)F)nc2-c1ccc(F)cc1 [Example 327]
> 200 | Cn1c(=O)oc2ccc(C(=O)NC[C@](O)(c3cc4c(c(-c5ccc(F)cc5)n3)OC[C@]4(C)C(N)=O)C(F)(F)F)cc21 [Example 328]
< 200 | COc1cc(C(=O)NC[C@](O)(C2=CC3C(OC[C@]3(C)C(N)=O)C(c3ccc(F)cc3)=N2)C(F)(F)F)ccc1Cl (stereo partly shown) [Example 329]
< 200 | COc1ccc(C(=O)NC[C@](O)(c2cc3c(c(-c4ccc(F)cc4)n2)OC[C@]3(C)C(N)=O)C(F)(F)F)cc1Cl [Example 330]
> 200 | COc1ccc2c(C(=O)NC[C@](O)(c3cc4c(c(-c5ccc(F)cc5)n3)OC[C@]4(C)C(N)=O)C(F)(F)F)n[nH]c2c1 [Example 331]
< 200 | COc1cc(OC)c2cc(C(=O)NC[C@](O)(c3cc4c(c(-c5ccc(F)cc5)n3)OC[C@]4(C)C(N)=O)C(F)(F)F)[nH]c2c1 [Example 332]
> 200 | Cn1cnc2cc(C(=O)NC[C@](O)(c3cc4c(c(-c5ccc(F)cc5)n3)OC[C@]4(C)C(N)=O)C(F)(F)F)ccc21 [Example 333]
> 200 | Cn1cnc2ccc(C(=O)NC[C@](O)(c3cc4c(c(-c5ccc(F)cc5)n3)OC[C@]4(C)C(N)=O)C(F)(F)F)cc21 [Example 334]
< 200 | C[C@]1(C(N)=O)COc2c1cc([C@@](O)(CNC(=O)c1cc(Nc3ccccn3)c3ncccc3c1)C(F)(F)F)nc2-c1ccc(F)cc1 [Example 338]
< 200 | C[C@]1(C(N)=O)COc2c1cc([C@@](O)(CNC(=O)c1cc(Nc3ccncn3)c3ncccc3c1)C(F)(F)F)nc2-c1ccc(F)cc1 [Example 343]
< 200 | Cc1cc(C)nc(Nc2cc(C(=O)NC[C@](O)(c3cc4c(c(-c5ccc(F)cc5)n3)OC[C@]4(C)C(N)=O)C(F)(F)F)cc3cccnc23)n1 [Example 344]
> 200 | COc1cc(Nc2cc(C(=O)NC[C@](O)(c3cc4c(c(-c5ccc(F)cc5)n3)OC[C@]4(C)C(N)=O)C(F)(F)F)cc3cccnc23)nc(OC)n1 [Example 345]
< 200 | Cc1cnc2c(Nc3ncccn3)cc(C(=O)NC[C@](O)(c3cc4c(c(-c5ccc(F)cc5)n3)OC[C@]4(C)C(N)=O)C(F)(F)F)cc2c1 [Example 346]
< 200 | C[C@]1(C(N)=O)COc2c1cc([C@@](O)(CNC(=O)c1cc(Nc3cccnn3)c3ncccc3c1)C(F)(F)F)nc2-c1ccc(F)cc1 [Example 347]
< 200 | C[C@]1(C(N)=O)COc2c1cc([C@@](O)(CNC(=O)c1cc(Nc3ccnnc3)c3ncccc3c1)C(F)(F)F)nc2-c1ccc(F)cc1 [Example 348]
< 200 | C[C@]1(C(N)=O)COc2c1cc([C@@](O)(CNC(=O)c1cc(Nc3ncc(F)cn3)c3ncccc3c1)C(F)(F)F)nc2-c1ccc(F)cc1 [Example 349]
< 200 | C[C@]1(C(N)=O)COc2c1cc([C@@](O)(CNC(=O)c1cc(-c3ccncc3)c3ncccc3c1)C(F)(F)F)nc2-c1ccc(F)cc1 [Example 351]
< 200 | C[C@]1(C(N)=O)COc2c1cc([C@@](O)(CNC(=O)c1cc(-c3cnc(N)nc3)c3ncccc3c1)C(F)(F)F)nc2-c1ccc(F)cc1 [Example 352]
< 200 | C[C@]1(C(N)=O)COc2c1cc([C@@](O)(CNC(=O)c1cc(-c3ccccn3)c3ncccc3c1)C(F)(F)F)nc2-c1ccc(F)cc1 [Example 353]
> 200 | C[C@]1(C(N)=O)COc2c1cc([C@@](O)(CNC(=O)c1cc(-c3ncccn3)c3ncccc3c1)C(F)(F)F)nc2-c1ccc(F)cc1 [Example 354]
> 200 | CC(C)(C)OC(=O)NCCOc1cc(C(=O)NC[C@](O)(c2cc3c(c(-c4ccc(F)cc4)n2)OC[C@]3(C)C(N)=O)C(F)(F)F)cc2cccnc12 [Example 355]
> 200 | C[C@]1(C(N)=O)COc2c1cc([C@@](O)(CNC(=O)c1cc(OCCN)c3ncccc3c1)C(F)(F)F)nc2-c1ccc(F)cc1 [Example 356]
> 200 | CC(=O)NCCOc1cc(C(=O)NC[C@](O)(c2cc3c(c(-c4ccc(F)cc4)n2)OC[C@]3(C)C(N)=O)C(F)(F)F)cc2cccnc12 [Example 357]

EC50 [nM] | Compound
> 200 | C[C@]1(C(N)=O)COc2c1cc([C@@](O)(CNC(=O)c1cc(OCCNS(C)(=O)=O)c3ncccc3c1)C(F)(F)F)nc2-c1ccc(F)cc1 [Example 358]
> 200 | C[C@]1(C(N)=O)COc2c1cc([C@@](O)(CNC(=O)c1cc(OCCNC(N)=O)c3ncccc3c1)C(F)(F)F)nc2-c1ccc(F)cc1 [Example 359]
> 200 | C[C@]1(C(N)=O)COc2c1cc([C@@](O)(CNC(=O)c1cc(OCCO)c3ncccc3c1)C(F)(F)F)nc2-c1ccc(F)cc1 [Example 360]
> 200 | COc1nccc2cc(C(=O)NC[C@](O)(c3cc4c(c(-c5ccc(F)cc5)n3)OC[C@]4(C)C(N)=O)C(F)(F)F)ccc12 [Example 362]
< 200 | C[C@]1(C(N)=O)COc2c1cc([C@@](O)(CNC(=O)c1cc(OC(F)(F)C(N)=O)c3ncccc3c1)C(F)(F)F)nc2-c1ccc(F)cc1 [Example 365]
< 200 | Cc1cnc2c(OCC(N)=O)cc(C(=O)NC[C@](O)(c3cc4c(c(-c5ccc(F)c(Cl)c5)n3)OC[C@]4(C)C(N)=O)C(F)(F)F)cc2c1 [Example 367]
< 200 | CCc1cnc2c(OCC(N)=O)cc(C(=O)NC[C@](O)(c3cc4c(c(-c5ccc(F)cc5)n3)OC[C@]4(C)C(N)=O)C(F)(F)F)cc2c1 [Example 368]
< 200 | CCc1cnc2c(OCC(N)=O)cc(C(=O)NC[C@](O)(c3cc4c(c(-c5ccc(F)c(Cl)c5)n3)OC[C@]4(C)C(N)=O)C(F)(F)F)cc2c1 [Example 369]
> 200 | CC1(NC(=O)COc2cc(C(=O)NC[C@](O)(c3cc4c(c(-c5ccc(F)cc5)n3)OC[C@]4(C)C(N)=O)C(F)(F)F)cc3cccnc23)CC1 [Example 370]
< 200 | C[C@]1(C(N)=O)COc2c1cc([C@@](O)(CNC(=O)c1cc(OCC(=O)Nc3ccccc3)c3ncccc3c1)C(F)(F)F)nc2-c1ccc(F)cc1 [Example 371]
< 200 | CNC(=O)COc1cc(C(=O)NC[C@](O)(c2cc3c(c(-c4ccc(F)cc4)n2)OC[C@]3(C)C(N)=O)C(F)(F)F)cc2cccnc12 [Example 372]
> 200 | COCCNC(=O)COc1cc(C(=O)NC[C@](O)(c2cc3c(c(-c4ccc(F)cc4)n2)OC[C@]3(C)C(N)=O)C(F)(F)F)cc2cccnc12 [Example 375]
> 200 | C[C@]1(C(N)=O)COc2c1cc([C@@](O)(CNC(=O)c1cc(OCC(=O)NC3CC3)c3ncccc3c1)C(F)(F)F)nc2-c1ccc(F)cc1 [Example 376]
> 200 | CC(C)(O)CNC(=O)COc1cc(C(=O)NC[C@](O)(c2cc3c(c(-c4ccc(F)cc4)n2)OC[C@]3(C)C(N)=O)C(F)(F)F)cc2cccnc12 [Example 377]
> 200 | C[C@]1(C(N)=O)COc2c1cc([C@@](O)(CNC(=O)c1cc(OCC(=O)NC[C@H](O)CO)c3ncccc3c1)C(F)(F)F)nc2-c1ccc(F)cc1 [Example 378]
> 200 | C[C@]1(C(N)=O)COc2c1cc([C@@](O)(CNC(=O)c1cc(OCC(=O)NC[C@@H](O)CO)c3ncccc3c1)C(F)(F)F)nc2-c1ccc(F)cc1 [Example 379]
> 200 | C[C@]1(C(N)=O)COc2c1cc([C@@](O)(CNC(=O)c1cc(OC3(C(N)=O)CC3)c3ncccc3c1)C(F)(F)F)nc2-c1ccc(F)cc1 [Example 381]
< 200 | C[C@]1(C(N)=O)COc2c1cc([C@@](O)(CNC(=O)c1cc(OCC(N)=O)c3ncccc3c1)C(F)(F)F)nc2-c1ccc(F)c(Cl)c1 [Example 382]
> 200 | CC(Oc1cc(C(=O)NC[C@](O)(c2cc3c(c(-c4ccc(F)cc4)n2)OC[C@]3(C)C(N)=O)C(F)(F)F)cc2cccnc12)C(N)=O (stereo partly shown) [Example 383]
< 200 | CNc1cc(C(=O)NC[C@](O)(c2cc3c(c(-c4ccc(F)cc4)n2)OC[C@]3(C)C(N)=O)C(F)(F)F)cc2cccnc12 [Example 385]
> 200 | C[C@]1(C(N)=O)COc2c1cc([C@@](O)(CNC(=O)c1cc(Oc3ccccn3)c3ncccc3c1)C(F)(F)F)nc2-c1ccc(F)cc1 [Example 386]
< 200 | C[C@]1(C(N)=O)COc2c1cc([C@@](O)(CNC(=O)c1cc(Oc3ncco3)c3ncccc3c1)C(F)(F)F)nc2-c1ccc(F)cc1 [Example 389]
> 200 | Cc1nc(COc2cc(C(=O)NC[C@](O)(c3cc4c(c(-c5ccc(F)cc5)n3)OC[C@]4(C)C(N)=O)C(F)(F)F)cc3cccnc23)co1 [Example 391]
< 200 | C[C@]1(C(N)=O)COc2c1cc([C@@](O)(CNC(=O)c1cc(NC(=O)C3CC3)c3ncccc3c1)C(F)(F)F)nc2-c1ccc(F)cc1 [Example 392]
> 200 | C[C@]1(C(N)=O)COc2c1cc([C@@](O)(CNC(=O)c1cc(NS(C)(=O)=O)c3ncccc3c1)C(F)(F)F)nc2-c1ccc(F)cc1 [Example 394]
> 200 | C[C@]1(C(N)=O)COc2c1cc([C@@](O)(CNC(=O)c1cc(NS(=O)(=O)C3CC3)c3ncccc3c1)C(F)(F)F)nc2-c1ccc(F)cc1 [Example 395]
< 200 | C[C@]1(C(N)=O)COc2c1cc([C@@](O)(CNC(=O)c1cc(NC(=O)C(F)F)c3ncccc3c1)C(F)(F)F)nc2-c1ccc(F)cc1 [Example 396]
